A word on the DC50: it is the midpoint of the concentration-degradation curve. A word on the pIC50: it is −log10 of the IC50, conventionally taken in molar units. For orientation: Emax means the greatest response seen or fitted, relative to the assay's reference.

The target of assay [1] is Protein cereblon/Peptidyl-prolyl cis-trans isomerase FKBP1A (Homo sapiens, UniProt P62942+Q96SW2). As to the kind of experiment: Protac activity against CRBN/FKBP12 (unknown origin) assessed as FKBP12 degradation by cell based assay.
Assay [2] addresses Protein cereblon/Tyrosine-protein kinase BTK (Homo sapiens, UniProt Q06187+Q96SW2). Briefly: Protac activity at E3 ubiquitin ligase/BTK in human NAMALWA cells assessed as BTK degradation. The class given is cell-based.
Assay [3] addresses T1, von Hippel-Lindau disease tumor suppressor/Bromodomain-containing protein 2 (Homo sapiens, UniProt P25440+P40337). As to the kind of experiment: Protac activity against VHL/BRD2 in human 22Rvl cells assessed as induction of BRD2 protein degradation by reverse phase protein array analysis. The class given is cell-based.
The target in assay [4] is von Hippel-Lindau disease tumor suppressor/Myc proto-oncogene protein (Homo sapiens, UniProt P01106+P40337). Briefly: Protac activity against VHL/c-Myc (unknown origin) assessed as induction of c-Myc protein degradation by cell based reverse phase protein array analysis.
In assay [5] the target is Protein cereblon/Histone acetyltransferase KAT2B (Homo sapiens, UniProt Q92831+Q96SW2). Briefly: Protac activity against E3 ubiquitin ligase/PCAF in human THP-1 cells assessed as induction of PCAF protein degradation. The class given is cell-based.
For assay [6], the target named is Protein cereblon/Histone acetyltransferase KAT2A (Homo sapiens, UniProt Q92830+Q96SW2). As to the kind of experiment: Protac activity against E3 ubiquitin ligase/GCN5 in human THP-1 cells assessed as induction of GCN5 protein degradation. The class given is cell-based.
The target in assay [7] is Protein cereblon/Cyclin-dependent kinase 9 (Homo sapiens, UniProt P50750+Q96SW2). Briefly: Protac activity against E3 ubiquitin ligase/CDK9 in human MCF7 cells assessed as induction of CDK9 protein degradation. Format: cell-based.
Assay [8] concerns the target T2, von Hippel-Lindau disease tumor suppressor/Androgen receptor (Homo sapiens, UniProt P10275+P40337). As to the kind of experiment: Protac activity against VHL/androgen receptor in human VCaP cells assessed as induction of androgen receptor protein degradation by Western blot analysis. The class given is cell-based. In general terms: Immunoblotting shows a protein as a band on a membrane.

The target in assay [9] is T2, von Hippel-Lindau disease tumor suppressor/Androgen receptor. As to the kind of experiment: Protac activity against VHL/androgen receptor in human VCaP cells assessed as induction of androgen receptor protein degradation by Western blot analysis relative to control. Format: cell-based.
Assay [10] addresses Estrogen receptor/E3 ubiquitin-protein ligase XIAP (Homo sapiens) (UniProt P03372+P98170). Briefly: Protac activity against xiap/ERalpha in human MCF7 cells assessed as reduction in ERalpha protein level at 3 nM relative to control. Format: cell-based. The arrangement: scale not given: the % may be the effect or the level left.
Assay [11] deals with T3, von Hippel-Lindau disease tumor suppressor/Mitogen-activated protein kinase 13 (Homo sapiens, UniProt O15264+P40337). Briefly: Protac activity at E3 ubiquitin ligase/p38delta (unknown origin) assessed as p38delta degradation by cell based assay.
For assay [12], the target named is T3, von Hippel-Lindau disease tumor suppressor/Mitogen-activated protein kinase 13. As to the kind of experiment: Protac activity at E3 ubiquitin ligase/p38delta (unknown origin) assessed as p38delta degradation by cell based assay relative to control.
For assay [13], the target named is von Hippel-Lindau disease tumor suppressor/Bromodomain-containing protein 4 (Homo sapiens, UniProt O60885+P40337). As to the kind of experiment: Protac activity against VHL/BRD4 (unknown origin) assessed as induction of BRD4 protein degradation by cell based assay.
For assay [14], the target named is T1, von Hippel-Lindau disease tumor suppressor/Bromodomain-containing protein 2. Briefly: Protac activity against VHL/BRD2 (unknown origin) assessed as […] protein degradation by cell based assay.
For assay [15], the target named is von Hippel-Lindau disease tumor suppressor/Bromodomain-containing protein 3 (Homo sapiens, UniProt Q15059+P40337). As to the kind of experiment: Protac activity against VHL/BRD3 (unknown origin) assessed as […] protein degradation by cell based assay.
Assay [16] deals with T4, von Hippel-Lindau disease tumor suppressor/Mitogen-activated protein kinase 14 (Homo sapiens, UniProt Q16539+P40337). Briefly: Protac activity at E3 ubiquitin ligase/p38alpha (unknown origin) assessed as p38alpha degradation by cell based assay.
Target sequence in this assay (Q16539 whole entry): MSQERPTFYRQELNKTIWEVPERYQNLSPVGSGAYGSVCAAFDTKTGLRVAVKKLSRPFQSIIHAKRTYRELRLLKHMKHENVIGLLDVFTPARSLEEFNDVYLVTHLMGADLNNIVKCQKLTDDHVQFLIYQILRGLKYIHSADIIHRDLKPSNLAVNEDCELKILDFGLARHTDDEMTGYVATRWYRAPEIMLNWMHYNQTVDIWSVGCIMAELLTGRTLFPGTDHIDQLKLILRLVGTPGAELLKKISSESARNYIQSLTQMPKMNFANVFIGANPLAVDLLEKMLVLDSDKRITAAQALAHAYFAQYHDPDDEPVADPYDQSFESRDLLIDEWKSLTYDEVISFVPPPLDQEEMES
Target sequence in this assay (P40337 whole entry): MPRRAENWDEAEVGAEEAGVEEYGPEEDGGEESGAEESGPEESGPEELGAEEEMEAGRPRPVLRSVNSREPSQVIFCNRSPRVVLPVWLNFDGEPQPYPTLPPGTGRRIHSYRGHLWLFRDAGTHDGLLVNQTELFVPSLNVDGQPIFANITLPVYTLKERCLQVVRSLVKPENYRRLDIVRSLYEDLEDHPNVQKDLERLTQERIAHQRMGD
Assay [17] concerns the target T4, von Hippel-Lindau disease tumor suppressor/Mitogen-activated protein kinase 14. As to the kind of experiment: Protac activity at E3 ubiquitin ligase/p38alpha (unknown origin) assessed as p38alpha degradation by cell based assay relative to control.
Target sequence in this assay (P40337 whole entry partner): as the sequence (P40337 whole entry) above
Target sequence in this assay (Q16539 2-360 limits assumed): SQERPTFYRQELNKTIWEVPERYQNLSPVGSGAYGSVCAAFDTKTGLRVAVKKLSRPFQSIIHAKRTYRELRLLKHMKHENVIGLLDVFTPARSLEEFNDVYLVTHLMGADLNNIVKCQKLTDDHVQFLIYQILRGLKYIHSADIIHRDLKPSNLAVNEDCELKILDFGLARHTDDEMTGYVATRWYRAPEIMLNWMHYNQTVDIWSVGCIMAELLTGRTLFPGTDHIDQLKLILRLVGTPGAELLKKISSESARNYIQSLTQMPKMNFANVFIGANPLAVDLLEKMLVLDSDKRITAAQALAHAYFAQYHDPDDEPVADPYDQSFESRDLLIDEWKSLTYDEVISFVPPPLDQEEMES
In assay [18] the target is T5, von Hippel-Lindau disease tumor suppressor/Receptor-interacting serine/threonine-protein kinase 2 (Homo sapiens, UniProt O43353+P40337). As to the kind of experiment: Protac activity against VHL/RIPK2 in human THP-1 cells assessed as induction of RIPK2 protein degradation at 10 nM relative to control. The class given is cell-based.
In assay [19] the target is T5, von Hippel-Lindau disease tumor suppressor/Receptor-interacting serine/threonine-protein kinase 2. As to the kind of experiment: Protac activity against VHL/RIPK2 in human THP-1 cells assessed as induction of RIPK2 protein degradation. The class given is cell-based.
For assay [20], the target named is von Hippel-Lindau disease tumor suppressor (Homo sapiens, UniProt P40337). As to the kind of experiment: Binding affinity to VHL in human THP-1 cells. Format: cell-based.

pIC50: −log10 of the molar value.

T1 sequence (P25440 whole entry): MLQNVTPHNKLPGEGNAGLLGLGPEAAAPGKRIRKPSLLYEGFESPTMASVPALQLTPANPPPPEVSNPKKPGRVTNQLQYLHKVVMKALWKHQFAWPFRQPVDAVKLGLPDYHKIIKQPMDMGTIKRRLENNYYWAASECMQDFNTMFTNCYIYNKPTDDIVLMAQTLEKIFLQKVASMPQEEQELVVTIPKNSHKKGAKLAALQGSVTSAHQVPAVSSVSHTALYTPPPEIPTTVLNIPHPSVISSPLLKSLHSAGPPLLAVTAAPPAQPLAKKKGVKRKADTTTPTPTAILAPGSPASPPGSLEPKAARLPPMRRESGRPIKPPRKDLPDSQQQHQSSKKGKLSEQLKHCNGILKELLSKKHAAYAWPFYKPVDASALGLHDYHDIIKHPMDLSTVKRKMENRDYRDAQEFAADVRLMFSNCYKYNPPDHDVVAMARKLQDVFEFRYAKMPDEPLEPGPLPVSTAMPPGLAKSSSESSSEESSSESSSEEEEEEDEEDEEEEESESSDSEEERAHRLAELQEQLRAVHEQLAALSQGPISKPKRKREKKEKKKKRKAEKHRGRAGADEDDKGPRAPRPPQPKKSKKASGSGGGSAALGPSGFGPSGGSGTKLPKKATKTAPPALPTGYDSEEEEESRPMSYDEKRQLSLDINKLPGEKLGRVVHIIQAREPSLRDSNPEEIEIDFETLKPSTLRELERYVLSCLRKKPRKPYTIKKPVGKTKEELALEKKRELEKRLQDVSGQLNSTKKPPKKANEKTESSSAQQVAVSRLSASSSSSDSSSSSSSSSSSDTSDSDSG
T1 sequence (P40337 whole entry): as the sequence (P40337 whole entry) above
Sequence of von Hippel-Lindau disease tumor suppressor/Bromodomain-containing protein 4 (P40337 whole entry, looked up, other chains not shown): as the sequence (P40337 whole entry) above
Sequence of von Hippel-Lindau disease tumor suppressor (P40337 whole entry): as above
Sequence of Protein cereblon/Histone acetyltransferase KAT2B (Q92831 whole entry): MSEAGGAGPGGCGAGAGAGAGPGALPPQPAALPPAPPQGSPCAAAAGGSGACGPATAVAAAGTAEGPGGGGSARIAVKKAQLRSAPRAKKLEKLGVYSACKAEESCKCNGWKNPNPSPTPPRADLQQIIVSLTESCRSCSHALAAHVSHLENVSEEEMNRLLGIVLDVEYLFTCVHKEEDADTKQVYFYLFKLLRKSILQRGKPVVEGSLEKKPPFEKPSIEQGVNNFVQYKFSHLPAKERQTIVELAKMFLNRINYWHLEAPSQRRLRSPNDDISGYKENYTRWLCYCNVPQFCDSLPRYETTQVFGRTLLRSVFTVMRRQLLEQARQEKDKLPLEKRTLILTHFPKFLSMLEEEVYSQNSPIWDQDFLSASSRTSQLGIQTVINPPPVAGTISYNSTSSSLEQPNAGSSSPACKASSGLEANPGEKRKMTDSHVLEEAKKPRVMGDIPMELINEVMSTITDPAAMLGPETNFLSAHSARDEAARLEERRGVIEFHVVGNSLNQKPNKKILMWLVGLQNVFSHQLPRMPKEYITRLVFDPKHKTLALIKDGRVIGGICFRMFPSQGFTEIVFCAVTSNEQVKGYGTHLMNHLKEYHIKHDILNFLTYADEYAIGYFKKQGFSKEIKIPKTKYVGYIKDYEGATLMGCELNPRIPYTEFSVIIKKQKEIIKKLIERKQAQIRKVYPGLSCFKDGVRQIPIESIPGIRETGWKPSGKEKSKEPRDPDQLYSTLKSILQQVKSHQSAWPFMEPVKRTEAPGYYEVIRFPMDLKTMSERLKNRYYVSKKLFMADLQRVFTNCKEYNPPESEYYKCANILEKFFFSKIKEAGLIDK
Sequence of Protein cereblon/Histone acetyltransferase KAT2B (Q96SW2 whole entry): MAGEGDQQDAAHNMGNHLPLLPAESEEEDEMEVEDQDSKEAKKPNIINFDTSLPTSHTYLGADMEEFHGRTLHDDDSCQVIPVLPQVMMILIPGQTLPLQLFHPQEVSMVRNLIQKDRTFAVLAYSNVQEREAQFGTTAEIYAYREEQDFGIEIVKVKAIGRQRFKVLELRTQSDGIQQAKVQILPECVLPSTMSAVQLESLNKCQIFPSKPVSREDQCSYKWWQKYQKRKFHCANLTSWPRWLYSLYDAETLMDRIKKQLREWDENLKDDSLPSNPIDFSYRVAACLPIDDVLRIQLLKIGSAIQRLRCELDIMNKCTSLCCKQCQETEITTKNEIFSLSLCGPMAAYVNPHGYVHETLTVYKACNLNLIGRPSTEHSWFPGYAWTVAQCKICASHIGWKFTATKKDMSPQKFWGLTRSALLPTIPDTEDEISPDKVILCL
Sequence of Protein cereblon/Peptidyl-prolyl cis-trans isomerase FKBP1A (P62942 whole entry): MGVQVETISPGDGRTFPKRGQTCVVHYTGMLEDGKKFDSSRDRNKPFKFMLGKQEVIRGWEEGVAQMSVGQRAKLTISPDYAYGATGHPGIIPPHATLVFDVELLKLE
Sequence of Protein cereblon/Peptidyl-prolyl cis-trans isomerase FKBP1A (Q96SW2 whole entry): as the sequence (Q96SW2 whole entry) above

As to `CCC(C)(C)C(=O)C(=O)N1CCCCC1C(=O)O[C@H](CCc1ccc(OC)c(OC)c1)c1cccc(NC(=O)CCC(=O)NCCCCNC(=O)COc2cccc3c2C(=O)N(C2CCC(=O)NC2=O)C3=O)c1` (stereo not given in full), in assay [1], the DC50 turned out to be 10 nM.

Take `Nc1ncnc2c1c(-c1ccc(Oc3ccccc3)cc1)nn2C1CCN(CCOCCOCC(=O)Nc2ccc3c(c2)C(=O)N(C2CCC(=O)NC2=O)C3=O)CC1` (stereo not given): the half-maximal degradation concentration (DC50) in assay [2] turned out to be 9.1 nM. Regarding `Cc1ncsc1-c1ccc([C@H](C)NC(=O)[C@@H]2C[C@@H](O)CN2C(=O)[C@@H](NC(=O)COCCCOCCNC(=O)C[C@@H]2N=C(c3ccc(Cl)cc3)c3c(sc(C)c3C)-n3c(C)nnc32)C(C)(C)C)cc1`, the DC50 in assay [3] is below 5 nM; in [4], below 1 nM. For `CN1C[C@H](Nc2cnn(C)c(=O)c2Br)C[C@H](c2ccc(C(=O)N(C)CCCN(C)c3ccc(CCCOc4cccc5c4C(=O)N(C4CCC(=O)NC4=O)C5=O)cc3)cc2)C1` (mixture of isomers), the figures for the DC50 in assay [5] and in assay [6] were 1.5 nM and 3 nM, respectively.

For `O=C1CCC(N2C(=O)c3cccc(NC(=O)CCCCCCCn4cc(COc5c(O)cc(O)c6c(=O)cc(-c7ccccc7)oc56)nn4)c3C2=O)C(=O)N1` (stereo not given), the pIC50 in [7] is 6.28.

In the case of `Cc1ncsc1-c1ccc(CNC(=O)[C@@H]2C[C@@H](O)CN2C(=O)[C@@H](NC(=O)COCCCCOc2ccc(-c3ccc(N4C(=S)N(c5ccc(C#N)c(C(F)(F)F)c5)C(=O)C4(C)C)cc3)cc2)C(C)(C)C)cc1`, in [8], the DC50 was 5 nM. In assay [9], the Emax is above 95%.

On to `CC/C(=C(\c1ccc(O)cc1)c1ccc(OCCN(C)C(=O)COCCOCCOCCOc2cccc(C(=O)c3csc([C@@H]4CCCN4C(=O)[C@@H](NC(=O)[C@H](C)NC)C4CCCCC4)n3)c2)cc1)c1ccccc1`, for which the Activity in assay [10] turned out to be 50%. As to `COc1cc2c(Oc3ccc(NC(=O)C4(C(=O)Nc5ccc(F)cc5)CC4)cc3F)ccnc2cc1OCCOCCOCCOc1cc(-c2scnc2C)ccc1CNC(=O)[C@@H]1C[C@@H](O)CN1C(=O)[C@H](C(C)C)N1Cc2ccccc2C1=O`, in assay [11], the DC50 turned out to be 46.2 nM. For the same compound, in assay [12], the Emax was determined as 99.4%. For the compound `Cc1ncsc1-c1ccc(CNC(=O)[C@@H]2[C@@H](F)[C@@H](O)CN2C(=O)[C@@H](NC(=O)COCCOCCOCCNC(=O)C[C@@H]2N=C(c3ccc(Cl)cc3)c3c(sc(C)c3C)-n3c(C)nnc32)C(C)(C)C)cc1`, the DC50 was below 3 nM in assay [13], 10 nM in [14] and 10 nM in assay [15].

For `COc1cc2c(Oc3ccc(NC(=O)C4(C(=O)Nc5ccc(F)cc5)CC4)cc3F)ccnc2cc1OCCCCOCCCCOCC(=O)N[C@H](C(=O)N1C[C@H](O)C[C@H]1C(=O)NCc1ccc(-c2scnc2C)cc1)C(C)(C)C`, the DC50 in assay [16] was found to be 7.16 nM. The Emax in assay [17] was 97.4%. With `Cc1ncsc1-c1ccc(CNC(=O)[C@@H]2C[C@@H](O)CN2C(=O)[C@@H](NC(=O)COCCOCCOCCOCCOc2cc3nccc(Nc4ccc5scnc5c4)c3cc2S(=O)(=O)C(C)(C)C)C(C)(C)C)cc1`, in assay [18], the maximal response (Emax) was above 95%. Also, the DC50 in assay [19] was 1.4 nM. The same compound showed a pIC50 in assay [20] of 6.18.

(Values after ChEMBL document CHEMBL4346721, “Small molecule PROTACs in targeted therapy: An emerging strategy to induce protein degradation” (Eur J Med Chem, 2019).)
